According to US6348190B1, “Pharmaceutical compositions with antimicrobial activity” (Richter Gedeon Vegyeszeti Gyar Rt., priority 1996, dated 2002):

Assays:
the bacteria tested = test: Seventh series: sterility examination after termination of the 72 hours trial; format: cell-based; conditions: sterility examination after the 72 hours trial
Excerpt: It can be observed that a nearly immediate effect occurs after inoculation.

Salmonella sp = test: Second series: number of germs against prolonged time in 0.1% solutions; format: cell-based; conditions: 0.1% solution; for number of test organisms: Salmonella sp
Method: (§1) Zinc and sodium hyaluronate solutions of […] (obtained by diluting solutions of 0.5% prepared according to Examples 1 and 2) were artificially infected by the identical germ count of various test organisms and the changing of the number of germs was taken against time. The number of germs was determined in a point of time by plating method. The evaluation was visually carried out at moulds and by using an automated colony counter at bacteria and fungi.
(§2) The effects of 0.1% zinc hyaluronate and sodium hyaluronate solutions, respectively on three distinguished test organisms are illustrated in Table 3.

Staphylococcus aureus = test: as above; format: cell-based; conditions: 0.1% solution; for number of test organisms: Staphylococcus aureus
Method: as §1, §2

Pseudomonas aeruginosa [1] = test: as above; format: cell-based; conditions: 0.1% solution
Method: as §1, §2

Pseudomonas aeruginosa [2] = test: Third series: effect of solutions of various concentrations on Pseudomonas aeruginosa; format: cell-based
Method: as §1
Due to the ophthalmological importance of Pseudomonas aeruginosa, the effects of zinc hyaluronate solutions of various concentrations on Pseudomonas aeruginosa were studied in comparison to sodium hyaluronate solutions of the same concentrations.

Staphylococcus areus = test: Fifth series: MIC and CID by serial dilution; format: cell-based, Staphylococcus aureus; conditions: serial dilution from 0.2% solution
Method: (§3) The antibacterial effect of zinc hyaluronate associate can be characterized by the following values of the minimum inhibitory concentration (MIC) and microbicidal concentration (CID) in comparison to the corresponding values of sodium hyaluronate.
(§4) MIC and CID values were determined by using solutions of 0.2% concentration. The determinations were conducted in a known way: a serial dilution was prepared from the substances to be tested and these solutions were artificially infected by the corresponding dilutions of the selected test organisms. After incubation at a suitable temperature for an appropriate time, the concentration series was visually evaluated and the minimum concentration was determined, which inhibited the growth of microorganisms (MIC value), or induced the death of the microorganisms (CID value).

Escherichia coli = test: Fifth series: MIC and CID by serial dilution; format: cell-based; conditions: serial dilution from 0.2% solution
Method: as §3, §4

Salmonella = test: Fifth series: MIC and CID by serial dilution; format: cell-based; conditions: serial dilution from 0.2% solution
Method: as §3, §4

Streptococcus sp = test: Fifth series: MIC and CID by serial dilution; format: cell-based; conditions: serial dilution from 0.2% solution
Method: as §3, §4

[3] = tested on: Helicobacter pylori strain 822/96; test: Eighth series: MIC on Helicobacter pylori, agar with 10% bovine blood; format: cell-based
Method: These investigations were carried out by using 1.0 weight/vol. % zinc hyaluronate solution on Helicobacter pylori strains cultivated from the gastric is biopsy samples of patients suffering from various ulcers. An 1% solution of De-Nol (colloidal bismuth subcitrate) was used as reference substance. Agar culture medium (nutrient medium) supplemented with 10% of bovine blood was used for the investigations. Plates without compound to be tested were used as controls. The inoculated plates were incubated for 3 to 5 days at 37° C. in a gaseous environment containing 5% of oxygen and 7 to 8% of carbon dioxide. The value of minimum inhibitory concentration (MIC) was considered to be the minimum concentration of substances totally inhibiting the propagation of bacteria well-growing on the control plates.

Substance: cobalt(II) hyaluronate [cobalt hyaluronate]
- character of the effect (static or bactericidal) (the bacteria tested): bactericidal effect

Substance: sodium hyaluronate [reference compound]
- number of test organisms (Salmonella sp; 0 hr): 8.0 × 10^6 Test-organism/ml
- number of test organisms (Salmonella sp; 24 hrs): 8.1 × 10^6 Test-organism/ml
- number of test organisms (Salmonella sp; 48 hrs): 1.2 × 10^6 Test-organism/ml
- number of test organisms (Salmonella sp; 72 hrs): 1.8 × 10^6 Test-organism/ml
- course of the count over the test time (in words) (Salmonella sp; Salmonella): remained practically within the same order
- number of test organisms (Staphylococcus aureus; 0 hr): 1.3 × 10^6 Test-organism/ml
- number of test organisms (Staphylococcus aureus; 24 hrs): 4.1 × 10^6 Test-organism/ml
- number of test organisms (Staphylococcus aureus; 48 hrs): 6.2 × 10^6 Test-organism/ml
- number of test organisms (Staphylococcus aureus; 72 hrs): 8.4 × 10^6 Test-organism/ml
- course of the count over the test time (in words) (Staphylococcus aureus; Staphylococcus): remained practically within the same order

Substance: zinc hyaluronate
- onset of effect (in words) (Pseudomonas aeruginosa [1]): significant decrease appeared only from the second day
- number of test organisms (Pseudomonas aeruginosa [1]; 0 hr): 2.1 × 10^5 Test-organism/ml
- number of test organisms (Pseudomonas aeruginosa [1]; 24 hrs): 2.4 × 10^4 Test-organism/ml
- number of test organisms (Pseudomonas aeruginosa [1]; 48 hrs): 3.0 × 10^3 Test-organism/ml
- number of test organisms (Pseudomonas aeruginosa [1]; 72 hrs): <100 Test-organism/ml
- number of test organisms (Pseudomonas aeruginosa [1]; 96 hrs): <100 Test-organism/ml
- number of test organisms (Pseudomonas aeruginosa [1]; 168 hrs): 0 Test-organism/ml
- number of test organisms (Salmonella sp; 0 hr): 2.0 × 10^6 Test-organism/ml
- number of test organisms (Salmonella sp; 24 hrs): 1.1 × 10^6 Test-organism/ml
- number of test organisms (Salmonella sp; 48 hrs): 0 Test-organism/ml
- number of test organisms (Salmonella sp; 72 hrs): 0 Test-organism/ml
- number of test organisms (Salmonella sp; 96 hrs): 0 Test-organism/ml
- number of test organisms (Salmonella sp; 168 hrs): 0 Test-organism/ml
- time until count reduced to zero (Salmonella sp; Salmonella): ≤ 48 h
- number of test organisms (Staphylococcus aureus; 0 hr): 4.2 × 10^6 Test-organism/ml
- number of test organisms (Staphylococcus aureus; 24 hrs): 4.6 × 10^6 Test-organism/ml
- number of test organisms (Staphylococcus aureus; 48 hrs): 0 Test-organism/ml
- number of test organisms (Staphylococcus aureus; 72 hrs): 0 Test-organism/ml
- number of test organisms (Staphylococcus aureus; 96 hrs): 0 Test-organism/ml
- number of test organisms (Staphylococcus aureus; 168 hrs): 0 Test-organism/ml
- time until count reduced to zero (Staphylococcus aureus; Staphylococcus): ≤ 48 h
- number of test organisms (Pseudomonas aeruginosa [2]; 0.1% solution, 0 hr): 5.5 × 10^5 Test-organism /ml
- number of test organisms (Pseudomonas aeruginosa [2]; 0.1% solution, 24 hrs): 5.0 × 10^5 Test-organism /ml
- number of test organisms (Pseudomonas aeruginosa [2]; 0.1% solution, 48 hrs): 2.0 × 10^3 Test-organism /ml
- number of test organisms (Pseudomonas aeruginosa [2]; 0.1% solution, 72 hrs): <100 Test-organism /ml
- number of test organisms (Pseudomonas aeruginosa [2]; 0.2% solution, 0 hr): 8.0 × 10^5 Test-organism /ml
- number of test organisms (Pseudomonas aeruginosa [2]; 0.2% solution, 24 hrs): 5.5 × 10^5 Test-organism /ml
- number of test organisms (Pseudomonas aeruginosa [2]; 0.2% solution, 48 hrs): 3.0 × 10^3 Test-organism /ml
- number of test organisms (Pseudomonas aeruginosa [2]; 0.2% solution, 72 hrs): <100 Test-organism /ml
- number of test organisms (Pseudomonas aeruginosa [2]; 0.5% solution, 0 hr): 1.0 × 10^6 Test-organism /ml
- number of test organisms (Pseudomonas aeruginosa [2]; 0.5% solution, 24 hrs): 6.0 × 10^5 Test-organism /ml
- number of test organisms (Pseudomonas aeruginosa [2]; 0.5% solution, 48 hrs): 3.0 × 10^3 Test-organism /ml
- number of test organisms (Pseudomonas aeruginosa [2]; 0.5% solution, 72 hrs): <100 Test-organism /ml
- activity compared (in words) (Pseudomonas aeruginosa [2]; Tables 4 and 5): obviously more effective than sodium hyaluronate solutions
- CID (microbicidal concentration) (Staphylococcus areus): 120 µg/mL
- MIC (minimum inhibitory concentration) (Staphylococcus areus): 40 µg/mL
- CID (microbicidal concentration) (Escherichia coli): 310 µg/mL
- MIC (minimum inhibitory concentration) (Escherichia coli): 26 µg/mL
- CID (microbicidal concentration) (Salmonella): 160 µg/mL
- MIC (minimum inhibitory concentration) (Salmonella): 5.4 µg/mL
- CID (microbicidal concentration) (Streptococcus sp): 400 µg/mL
- MIC (minimum inhibitory concentration) (Streptococcus sp): 96 µg/mL
- in vitro activity compared (in words) ([3]; Helicobacter pylori): comparable to the activity of De-Nol
- MIC ([3]; Helicobacter pylori strain 822/96, 3 to 5 days at 37° C., 5% oxygen, 7 to 8% carbon dioxide): 500 µg/mL
